Results taken from US12479866B2, “Boron-containing rho kinase inhibitors” (Percipiad, Inc., priority 2019, dated 2025).

Columns and labels:
Type in all cases: biochemical
[1] = molecular target: T1, AKT1 (Homo sapiens (Human), UniProt P31749); assay: AGC Kinase Selectivity Profiling (ADP-Glo); details: 1 μM compound; AGC Panel; read-out: Percent enzyme activity inhibition, AKT1
Description: ROCK1 (also called ROCK I, ROKβ, Rho-kinase β, or p160ROCK) and ROCK2 ((also known as ROCK II, ROKα, or Rho kinase) belong to AGC family of serine/threonine kinases. The group of AGC kinases consists of 63 evolutionarily related serine/threonine protein kinases comprising PDK1, PKB/Akt, SGK, PKC, PRK/PKN, MSK, RSK, S6K, PKA, PKG, DMPK, MRCK, ROCK, NDR, LATS, CRIK, MAST, GRK, Sgk494, and YANK, while two other families, Aurora and PLK, are the most closely related to the group (Leroux et al., AGC kinases, mechanisms of regulation and innovative drug development, Semin Cancer Biol. 2018 February; 48:1-17).

[2] = molecular target: CK2a1 (Homo sapiens (Human), UniProt P68400); assay: Kinase Selectivity Profiling General Panel (ADP-Glo); details: 1 μM compound, read-out: Percent enzyme activity inhibition, CK2a1
Sequence of CK2a1 (P68400 whole entry): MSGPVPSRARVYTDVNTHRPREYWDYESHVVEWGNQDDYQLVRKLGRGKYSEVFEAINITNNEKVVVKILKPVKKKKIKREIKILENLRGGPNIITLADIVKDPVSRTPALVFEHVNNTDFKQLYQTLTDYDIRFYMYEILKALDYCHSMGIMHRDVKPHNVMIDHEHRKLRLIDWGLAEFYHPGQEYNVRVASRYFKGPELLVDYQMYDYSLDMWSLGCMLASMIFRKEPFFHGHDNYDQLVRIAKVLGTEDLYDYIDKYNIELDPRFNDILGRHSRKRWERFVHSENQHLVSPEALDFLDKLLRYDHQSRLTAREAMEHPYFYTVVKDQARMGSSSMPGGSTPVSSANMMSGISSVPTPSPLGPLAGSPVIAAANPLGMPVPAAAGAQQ
Experimental: (§1) After this incubation, 5 μl of ADP-Glo™ reagent was added to 5 μl reaction and incubated for 40 minutes. Then, 10 μl of Kinase Detection Reagent added to all assay wells in the assay plate and incubated at room temperature for 30 minutes. […]

[3] = molecular target: LCK (Homo sapiens (Human), UniProt P06239); assay: as above; details: 1 μM compound, read-out: Percent enzyme activity inhibition, LCK
Sequence of LCK (P06239 whole entry): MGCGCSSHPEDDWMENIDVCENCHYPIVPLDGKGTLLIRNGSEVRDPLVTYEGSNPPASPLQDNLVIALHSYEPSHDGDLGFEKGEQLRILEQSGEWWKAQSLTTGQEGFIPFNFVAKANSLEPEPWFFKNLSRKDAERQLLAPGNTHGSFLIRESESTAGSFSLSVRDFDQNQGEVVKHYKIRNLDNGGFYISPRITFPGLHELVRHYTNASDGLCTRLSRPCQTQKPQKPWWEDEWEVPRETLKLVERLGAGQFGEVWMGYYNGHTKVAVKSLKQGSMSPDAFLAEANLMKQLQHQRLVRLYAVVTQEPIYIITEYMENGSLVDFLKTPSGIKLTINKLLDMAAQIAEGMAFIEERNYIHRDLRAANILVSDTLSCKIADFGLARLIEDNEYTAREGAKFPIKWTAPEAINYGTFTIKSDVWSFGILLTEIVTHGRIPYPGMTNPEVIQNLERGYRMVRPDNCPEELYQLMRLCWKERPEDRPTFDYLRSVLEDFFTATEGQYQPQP
Experimental: as §1

[4] = molecular target: PKCa (Homo sapiens (Human), UniProt P17252); assay: as above; details: 1 μM compound, read-out: Percent enzyme activity inhibition, PKCa
Experimental: as §1

[5] = molecular target: PAK1/CDC42 (Homo sapiens (Human), UniProt Q13153); assay: as above; details: 1 μM compound, read-out: Percent enzyme activity inhibition, PAK1/CDC42
Sequence of PAK1/CDC42 (Q13153 whole entry): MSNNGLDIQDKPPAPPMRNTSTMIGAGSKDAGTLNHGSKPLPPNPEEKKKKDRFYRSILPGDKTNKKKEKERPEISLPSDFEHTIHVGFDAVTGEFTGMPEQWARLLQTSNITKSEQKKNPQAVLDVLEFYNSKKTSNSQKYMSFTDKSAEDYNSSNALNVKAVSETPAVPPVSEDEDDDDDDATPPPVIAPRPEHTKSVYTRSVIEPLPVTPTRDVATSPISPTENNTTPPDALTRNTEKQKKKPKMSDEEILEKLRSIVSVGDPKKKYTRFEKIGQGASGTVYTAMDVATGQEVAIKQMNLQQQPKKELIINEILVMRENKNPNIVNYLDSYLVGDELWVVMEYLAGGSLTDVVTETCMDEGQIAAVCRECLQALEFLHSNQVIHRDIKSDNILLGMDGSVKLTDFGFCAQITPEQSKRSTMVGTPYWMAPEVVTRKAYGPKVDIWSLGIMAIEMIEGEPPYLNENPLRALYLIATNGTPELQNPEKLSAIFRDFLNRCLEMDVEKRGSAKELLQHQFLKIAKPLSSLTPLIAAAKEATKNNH
Experimental: as §1

[6] = molecular target: p38a (Homo sapiens (Human), UniProt Q16539); assay: as above; details: 1 μM compound, read-out: Percent enzyme activity inhibition, p38a
Sequence of p38a (Q16539 whole entry): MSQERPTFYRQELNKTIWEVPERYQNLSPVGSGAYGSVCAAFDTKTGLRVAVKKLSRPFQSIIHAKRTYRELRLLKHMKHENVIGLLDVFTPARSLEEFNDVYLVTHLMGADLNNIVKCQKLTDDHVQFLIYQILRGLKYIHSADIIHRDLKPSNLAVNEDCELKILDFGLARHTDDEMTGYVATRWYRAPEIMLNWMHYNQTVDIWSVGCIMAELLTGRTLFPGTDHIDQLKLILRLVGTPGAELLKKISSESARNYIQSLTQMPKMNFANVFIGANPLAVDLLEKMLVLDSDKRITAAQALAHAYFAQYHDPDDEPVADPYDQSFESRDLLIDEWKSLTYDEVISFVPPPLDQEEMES
Experimental: as §1

[7] = molecular target: CAMK4 (Homo sapiens (Human), UniProt Q16566); assay: as above; details: 1 μM compound, read-out: Percent enzyme activity inhibition, CAMK4
Experimental: as §1

[8] = molecular target: GSK3b (Homo sapiens (Human), UniProt P49841); assay: as above; details: 1 μM compound, read-out: Percent enzyme activity inhibition, GSK3b
Sequence of GSK3b (P49841 whole entry): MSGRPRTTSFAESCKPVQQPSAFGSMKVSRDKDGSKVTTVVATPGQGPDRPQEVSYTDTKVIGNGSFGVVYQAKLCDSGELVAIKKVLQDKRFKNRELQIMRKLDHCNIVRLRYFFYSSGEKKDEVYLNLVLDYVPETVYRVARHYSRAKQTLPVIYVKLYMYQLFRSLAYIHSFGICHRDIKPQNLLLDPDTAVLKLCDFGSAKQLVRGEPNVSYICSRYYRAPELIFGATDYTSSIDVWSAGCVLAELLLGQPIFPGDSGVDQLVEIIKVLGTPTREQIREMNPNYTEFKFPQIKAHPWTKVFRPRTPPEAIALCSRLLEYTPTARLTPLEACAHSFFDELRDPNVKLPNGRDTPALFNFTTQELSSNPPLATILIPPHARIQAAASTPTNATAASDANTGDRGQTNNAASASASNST
Experimental: as §1

[9] = molecular target: FGFR1 (Homo sapiens (Human), UniProt P11362); assay: as above; details: 1 μM compound, read-out: Percent enzyme activity inhibition, FGFR1
Experimental: as §1

[10] = molecular target: Aurora A (Homo sapiens (Human), UniProt O14965); assay: as above; details: 1 μM compound, read-out: Percent enzyme activity inhibition, Aurora A
Experimental: as §1

[11] = molecular target: MINK1 (Homo sapiens (Human), UniProt Q8N4C8); assay: as above; details: 1 μM compound, read-out: Percent enzyme activity inhibition, MINK1
Sequence of MINK1 (Q8N4C8 whole entry): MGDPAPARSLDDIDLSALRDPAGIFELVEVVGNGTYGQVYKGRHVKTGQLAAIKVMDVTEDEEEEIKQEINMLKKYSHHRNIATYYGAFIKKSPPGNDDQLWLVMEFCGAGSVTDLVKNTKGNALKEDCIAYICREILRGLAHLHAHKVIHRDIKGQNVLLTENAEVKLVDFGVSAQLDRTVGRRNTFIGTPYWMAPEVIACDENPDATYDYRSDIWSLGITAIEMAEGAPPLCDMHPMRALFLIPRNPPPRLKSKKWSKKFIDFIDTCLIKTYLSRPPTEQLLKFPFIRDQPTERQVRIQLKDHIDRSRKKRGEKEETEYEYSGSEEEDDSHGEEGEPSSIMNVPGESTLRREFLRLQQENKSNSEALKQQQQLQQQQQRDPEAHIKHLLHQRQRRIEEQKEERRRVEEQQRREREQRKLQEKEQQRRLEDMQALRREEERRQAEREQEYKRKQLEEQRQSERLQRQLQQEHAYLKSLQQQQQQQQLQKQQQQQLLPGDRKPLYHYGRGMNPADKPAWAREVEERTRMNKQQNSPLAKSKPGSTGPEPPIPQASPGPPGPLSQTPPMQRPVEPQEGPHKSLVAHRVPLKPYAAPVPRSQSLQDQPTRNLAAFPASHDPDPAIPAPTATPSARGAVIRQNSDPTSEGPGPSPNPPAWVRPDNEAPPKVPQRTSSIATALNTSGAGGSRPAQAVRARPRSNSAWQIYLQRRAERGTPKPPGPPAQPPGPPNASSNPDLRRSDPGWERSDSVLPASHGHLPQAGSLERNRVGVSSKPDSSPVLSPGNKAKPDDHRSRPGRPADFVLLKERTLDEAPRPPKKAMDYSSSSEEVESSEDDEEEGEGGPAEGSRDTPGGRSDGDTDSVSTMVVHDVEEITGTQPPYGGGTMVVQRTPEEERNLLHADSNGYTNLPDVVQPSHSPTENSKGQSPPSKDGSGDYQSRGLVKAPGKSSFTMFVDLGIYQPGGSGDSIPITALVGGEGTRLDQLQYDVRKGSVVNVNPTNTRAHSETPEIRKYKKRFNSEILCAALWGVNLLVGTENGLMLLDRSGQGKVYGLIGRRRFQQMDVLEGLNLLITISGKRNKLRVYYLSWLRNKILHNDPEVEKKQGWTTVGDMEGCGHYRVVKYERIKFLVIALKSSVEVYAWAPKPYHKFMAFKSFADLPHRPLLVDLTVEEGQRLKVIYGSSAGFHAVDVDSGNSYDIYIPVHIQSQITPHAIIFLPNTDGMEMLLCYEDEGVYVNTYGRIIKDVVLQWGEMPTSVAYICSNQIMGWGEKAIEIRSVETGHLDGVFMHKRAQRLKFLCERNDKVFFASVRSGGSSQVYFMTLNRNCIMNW
Experimental: as §1

[12] = molecular target: CHK1 (Homo sapiens (Human), UniProt O14757); assay: as above; details: 1 μM compound, read-out: Percent enzyme activity inhibition, CHK1
Experimental: as §1

[13] = molecular target: IKKb (Homo sapiens (Human), UniProt O14920); assay: as above; details: 1 μM compound, read-out: Percent enzyme activity inhibition, IKKb
Experimental: as §1

[14] = molecular target: AMPKA1/B1/G2 (Homo sapiens (Human), UniProt Q13131); assay: as above; details: 1 μM compound, read-out: Percent enzyme activity inhibition, AMPKA1/B1/G2
Experimental: as §1

[15] = molecular target: MAPKAPK2 (Homo sapiens (Human), UniProt P49137); assay: as above; details: 1 μM compound, read-out: Percent enzyme activity inhibition, MAPKAPK2
Sequence of MAPKAPK2 (P49137 whole entry): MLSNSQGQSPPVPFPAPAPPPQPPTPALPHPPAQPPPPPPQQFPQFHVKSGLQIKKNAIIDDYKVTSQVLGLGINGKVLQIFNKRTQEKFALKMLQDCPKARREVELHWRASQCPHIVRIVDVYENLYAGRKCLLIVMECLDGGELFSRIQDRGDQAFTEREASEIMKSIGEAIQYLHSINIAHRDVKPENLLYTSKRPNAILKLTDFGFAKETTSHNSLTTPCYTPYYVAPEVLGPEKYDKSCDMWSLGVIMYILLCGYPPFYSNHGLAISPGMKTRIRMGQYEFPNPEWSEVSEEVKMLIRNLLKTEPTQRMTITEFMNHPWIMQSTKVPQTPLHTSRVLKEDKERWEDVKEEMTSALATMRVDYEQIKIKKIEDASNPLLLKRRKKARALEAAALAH
Experimental: as §1

[16] = molecular target: CK1a1 (Homo sapiens (Human), UniProt P48729); assay: as above; details: 1 μM compound, read-out: Percent enzyme activity inhibition, CK1a1
Sequence of CK1a1 (P48729 whole entry): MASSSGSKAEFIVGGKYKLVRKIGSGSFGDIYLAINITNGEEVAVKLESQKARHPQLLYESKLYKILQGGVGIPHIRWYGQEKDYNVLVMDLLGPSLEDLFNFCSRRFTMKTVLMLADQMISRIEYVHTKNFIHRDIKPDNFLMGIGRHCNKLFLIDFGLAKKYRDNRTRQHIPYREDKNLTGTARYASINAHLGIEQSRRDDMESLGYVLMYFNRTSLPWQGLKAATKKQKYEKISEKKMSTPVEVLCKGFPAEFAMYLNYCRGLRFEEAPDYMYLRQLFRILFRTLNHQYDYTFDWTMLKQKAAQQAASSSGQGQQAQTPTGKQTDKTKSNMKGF
Experimental: as §1

[17] = molecular target: ROCK1 (Homo sapiens (Human), UniProt Q13464); assay: as above; details: 1 μM compound, read-out: Percent enzyme activity inhibition, ROCK1
Experimental: as §1

[18] = molecular target: SYK (Homo sapiens (Human), UniProt P43405); assay: as above; details: 1 μM compound, read-out: Percent enzyme activity inhibition, SYK
Experimental: as §1

[19] = molecular target: T1, AKT1; assay: as above; details: 1 μM compound, read-out: Percent enzyme activity inhibition, AKT1
Experimental: as §1

T1 sequence (P31749 whole entry): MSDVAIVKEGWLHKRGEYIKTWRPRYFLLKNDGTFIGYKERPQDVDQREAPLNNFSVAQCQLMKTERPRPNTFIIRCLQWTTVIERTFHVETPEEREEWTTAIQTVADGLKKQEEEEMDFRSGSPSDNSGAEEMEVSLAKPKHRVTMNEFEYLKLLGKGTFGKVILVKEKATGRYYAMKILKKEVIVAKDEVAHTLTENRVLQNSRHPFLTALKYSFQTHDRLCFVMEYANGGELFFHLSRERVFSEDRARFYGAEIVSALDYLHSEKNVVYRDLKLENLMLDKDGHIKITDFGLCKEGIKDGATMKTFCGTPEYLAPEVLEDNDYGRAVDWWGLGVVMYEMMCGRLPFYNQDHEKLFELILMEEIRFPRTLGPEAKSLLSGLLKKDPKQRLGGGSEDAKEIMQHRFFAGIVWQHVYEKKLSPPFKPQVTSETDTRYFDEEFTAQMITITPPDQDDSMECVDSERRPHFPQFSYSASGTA

`Cl.Cl.NCC(C(=O)Nc1ccc2cnccc2c1)c1ccc(B(O)O)cc1` (stereo not shown) [Compound 10•2HCl] was tested, and the inhibition at 1 µM [1] was 52%, the inhibition at 1 µM [2] was 3% and the inhibition at 1 µM [3] was 0%. For the same molecule, the inhibition at 1 µM [4] was 72%, the inhibition at 1 µM [5] was 0% and the inhibition at 1 µM [6] was 0%. The inhibition at 1 µM [7] was 7%, the inhibition at 1 µM [8] was 0% and the inhibition at 1 µM [9] was 35%. It also gave an inhibition at 1 µM [10] of 21%, an inhibition at 1 µM [11] of 3% and an inhibition at 1 µM [12] of 21%. The inhibition at 1 µM [13] was 0%, the inhibition at 1 µM [14] was 58% and the inhibition at 1 µM [15] was 30%. It also gave an inhibition at 1 µM [16] of 0%, an inhibition at 1 µM [17] of 98% and an inhibition at 1 µM [18] of 2%. The inhibition at 1 µM [19] was 55%.
